Experimental data published in patent US20190075794A1, “BIODEGRADABLE ANTIMICROBIAL COMPOSITIONS AND USES THEREOF TO COMBAT MICROORGANISMS” (IPABC LTD, priority 2015, published 2019).

Key:
[1] = system: E. coli; assay: Assay for antimicrobial activity: test solution incubated with 10^6 CFUs bacteria, neutralised, plated, growth assessed after 24 hours; type: cell-based; parameters: key to Growth of E. coli 24 hrs after treatment, 1:100 dilution of bacterial reaction mixture / Growth of E. coli 24 hrs after treatment, 1:1000 dilution of bacterial reaction mixture / Growth of E. coli 24 hrs after treatment, 1:10 dilution of bacterial reaction mixture: + plates with microbial growth; − for plates that had no growth; conditions: for Growth of E. coli 24 hrs after treatment, 1:1000 dilution of bacterial reaction mixture / Growth of E. coli 24 hrs after treatment, 1:100 dilution of bacterial reaction mixture / Growth of E. coli 24 hrs after treatment, 1:10 dilution of bacterial reaction mixture: 10^6 CFUs, 30 min RT; for Concentration at which growth of E. coli is inhibited: 30 min treatment
Protocol: • APG: AG6210 (Akzo Nobel Surface Chemistry AB) 60% aqueous solution of a 60:40 mixture of decyl-β-D-glucopyranoside and octyl-β-D-glucopyranoside • Decyl-β-D-glucopyranoside—EC number: 259-218-1; CAS number: 54549-25-6 • Octyl-β-D-glucopyranoside—EC number: 414-420-0; CAS number: 108081-06-7 • ε-polylysine: Zhengzhou Bainafo Co., Ltd. […] L(+)-lactic acid. […] CAS number: 79-33-4 • Neutraliser (NF): 30 ml Tween 80, 30 g saponine, 1 g histidine, 1 g cysteine dissolved in 1000 ml water; sterilised by autoclaving. • RBT 24/7: Residual Barrier Technology. Proprietary antimicrobial surface sanitizer. • Culture media: Oxoid plate count agar (CM0463): […]

[2] = at 20° C.; cited from earlier work
[3] = acid(s) alone, printed as cannot inhibit growth when used at up to, combined concentration for lactic + citric
[4] = Table 1: L(+)-lactic acid alone, listed as 250 mM L(+)-Lactic Acid
[5] = Table 1: L(+)-lactic acid alone, listed as 500 mM L(+)-Lactic Acid
[6] = Table 1: L(+)-lactic acid alone, listed as 1M L(+)-Lactic Acid, 1M L(+)-lactic acid
[7] = Table 1: L(+)-lactic acid alone, listed as 2M L(+)-Lactic Acid, 2M L(+)-lactic acid

SMILES | Growth of E. coli 24 hrs after treatment, 1:1000 dilution of bacterial reaction mixture ([1]; Table 2: citric acid alone, listed as 50 mM Citric Acid) | Concentration at which growth of E. coli is inhibited [1, 3] | Growth of E. coli 24 hrs after treatment, 1:100 dilution of bacterial reaction mixture ([1]; Table 1: L(+)-lactic acid alone, listed as 100 mM L(+)-Lactic Acid) | Growth of E. coli 24 hrs after treatment, 1:1000 dilution of bacterial reaction mixture ([1]; Table 1: L(+)-lactic acid alone, listed as 100 mM L(+)-Lactic Acid, 100 mM L(+)-lactic acid) | Growth of E. coli 24 hrs after treatment, 1:10 dilution of bacterial reaction mixture [1, 4] | Growth of E. coli 24 hrs after treatment, 1:100 dilution of bacterial reaction mixture [1, 4] | Growth of E. coli 24 hrs after treatment, 1:1000 dilution of bacterial reaction mixture ([1]; Table 1: L(+)-lactic acid alone, listed as 250 mM L(+)-Lactic Acid, 250 mM L(+)-lactic acid) | Growth of E. coli 24 hrs after treatment, 1:10 dilution of bacterial reaction mixture [1, 5] | Growth of E. coli 24 hrs after treatment, 1:100 dilution of bacterial reaction mixture [1, 5] | Growth of E. coli 24 hrs after treatment, 1:1000 dilution of bacterial reaction mixture ([1]; Table 1: L(+)-lactic acid alone, listed as 1M L(+)-Lactic Acid) | Growth of E. coli 24 hrs after treatment, 1:10 dilution of bacterial reaction mixture [1, 6] | Growth of E. coli 24 hrs after treatment, 1:100 dilution of bacterial reaction mixture [1, 6] | Growth of E. coli 24 hrs after treatment, 1:1000 dilution of bacterial reaction mixture ([1]; Table 1: L(+)-lactic acid alone, listed as 2M L(+)-Lactic Acid) | Growth of E. coli 24 hrs after treatment, 1:10 dilution of bacterial reaction mixture [1, 7] | Growth of E. coli 24 hrs after treatment, 1:100 dilution of bacterial reaction mixture [1, 7] | Concentration at which growth of E. coli is inhibited ([1]; lactic acid alone) | CMC [2]
O=C(O)CC(O)(CC(=O)O)C(=O)O [Citric Acid, Citric acid] | + | > 50 mM |  |  |  |  |  |  |  |  |  |  |  |  |  |  | 
C[C@H](O)C(=O)O [L(+)-Lactic Acid, L(+)-lactic acid] |  | > 40 mM | + | + | + | + | − | + | + | − | + | + | − | − | − | at least 1 M | 
CCCCCCCCCCO[C@@H]1O[C@H](CO)[C@@H](O)[C@H](O)[C@H]1O [decylglucoside, Decyl-β-D-glucopyranoside] |  |  |  |  |  |  |  |  |  |  |  |  |  |  |  |  | approximately 300 ppm
